As a reminder, the LD50 is the dose expected to kill half of the subjects tested.

Here are results for 18 compounds from patent publication US4593090A, “Novel nitrosourea compounds, method for preparing same, and pharmaceutical composition containing same” (Gogo Kimura, priority 1981, dated 1986).

The test system of one data set is Leukemia L1210. Description: Activity against Leukemia L1210, intraperitoneal, increase in life span of mice. Conditions: for ED (maximum ILS) / ED30: Mus musculus, L1210, ip, ip once a day for 5 successive days; for ED (maximum ILS): daily dosage giving maximum increase of life span, read-out: O.D. (optimum dosage); for ED30: daily dosage increasing average survival days by 30%, read-out: ILS30; for Survivors after 60 days / Max. ILS % / Therapeutic ratio TR: ip; for Survivors after 60 days: 6-membered group; for Max. ILS %: 60-day observation, versus control; for Therapeutic ratio TR: O.D./ILS30. The format is in vivo, female mice (BDF1 family). The method, boiled down: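 L1210 cells (1×10^5) into abdominal cavity of female BDF1 mice, 20–23 g, n=6/group. Dosing 24 h post-implant, ip or po, qd ×5. 60-day observation; ILS% = mean survival vs untreated control; T.R. = O.D./ILS 30.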

Data set [1] in a line: Acute toxicity (LD50, Behrens-Karber method). Conditions: mouse, in vivo, ip, mortality during 30 days. The format is in vivo, ICR mice. The protocol: Test compounds, dissolved or suspended in 0.5% aqueous CMC, were each intraperitoneally administered to ICR mice in a dose of 0.1 ml per 10 g body weight. LD50 (mg/kg) value of each test compound was calculated from the mortality of mice during 30 days by the Behrens-Karber method.

As to `CC(C)CO[C@@H]1OC[C@H](N(C(=O)N(CCCl)N=O)C2CCCCC2)[C@H](O)[C@H]1O` [Compound 152], in the data set with Leukemia L1210, the ED (maximum ILS) is 170 mg/kg, the ED30 stood at 4.31 mg/kg, the “Survivors after 60 days” value was 4/6 and the “Max. ILS %” value is reported as greater than 425%. Further, the “Therapeutic ratio TR” value in the data set on Leukemia L1210 is 43.1. The compound also yielded an LD50 at 720 h in data set [1] of 550 mg/kg.

With `COCCCN(C(=O)N(CCCl)N=O)[C@H]1CO[C@@H](OCC(C)C)[C@H](O)[C@H]1O` [Compound 154, 3-(3-methoxy-n-propyl)-3-(isobutyl α-L-arabinopyranose-4-yl)-1-(2-chloroethyl)-1-nitrosourea], in the data set with Leukemia L1210, the ED (maximum ILS) turned out to be 160 mg/kg, the ED30 turned out to be 2.85 mg/kg, the “Survivors after 60 days” value was 5/6 and the “Max. ILS %” value was greater than 620%. For the same compound, the “Therapeutic ratio TR” value in the data set with Leukemia L1210 was found to be 56.1. For the same compound, in data set [1], the LD50 at 720 h stood at 500 mg/kg.

On to `COCCN(C(=O)N(CCCl)N=O)[C@H]1[C@H](OC2CCCCC2)OC[C@H](O)[C@@H]1O` [Compound 155, 3-(2-methoxyethyl)-3-(cyclohexyl α-L-arabinopyranose-2-yl)-1-(2-chloroethyl)-1-nitrosourea], for which, in the data set on Leukemia L1210, the ED (maximum ILS) is 160 mg/kg, the ED30 came to 2.64 mg/kg, the “Survivors after 60 days” value is 6/6 and the “Max. ILS %” value is on record as greater than 700%. Further, the “Therapeutic ratio TR” value in the data set with Leukemia L1210 is on record as 60.6. The same compound gave an LD50 at 720 h in data set [1] of 520 mg/kg.

Take `CCC(C)O[C@@H]1OC[C@H](O)[C@H](O)[C@H]1N(CCCOC)C(=O)N(CCCl)N=O` (stereo partly drawn) [Compound 158, 3-(3-methoxy-n-propyl)-3-(sec-butyl α-L-arabinopyranose-2-yl)-1-(2-chloroethyl)-1-nitrosourea]: in the data set on Leukemia L1210, the ED (maximum ILS) was 170 mg/kg, the ED30 is 3.21 mg/kg, the “Survivors after 60 days” value is reported as 6/6 and the “Max. ILS %” value was greater than 700%. In addition, the “Therapeutic ratio TR” value with Leukemia L1210 was found to be 53.0. Also, in data set [1], the LD50 at 720 h amounted to 530 mg/kg.

For `COCCCN(C(=O)N(CCCl)N=O)[C@@H]1CO[C@H](OC2CCCCC2)[C@@H](O)[C@@H]1O` [Compound 160, 3-(3-methoxy-n-propyl)-3-(cyclohexyl α-D-arabinopyranose-4-yl)-1-(2-chloroethyl)-1-nitrosourea], in the data set on Leukemia L1210, the ED (maximum ILS) was determined as 180 mg/kg, the ED30 came to 3.1 mg/kg, the “Survivors after 60 days” value is 6/6 and the “Max. ILS %” value is listed as greater than 700%. For the same compound, the “Therapeutic ratio TR” value with Leukemia L1210 is reported as 58.1. Further, the LD50 at 720 h in data set [1] was 550 mg/kg.

For `CC(C)CN(C(=O)N(CCCl)N=O)[C@@H]1[C@H](OC2CCCCC2)O[C@H](CO)[C@H]1O` [Compound 162, 3-isobutyl-3-(cyclohexyl β-D-arabinofuranose-2-yl)-1-(2-chloroethyl)-1-nitrosourea], in the data set with Leukemia L1210, the ED (maximum ILS) was found to be 160 mg/kg, the ED30 turned out to be 5.63 mg/kg, the “Survivors after 60 days” value is reported as 3/6 and the “Max. ILS %” value is greater than 350%. Besides, the “Therapeutic ratio TR” value with Leukemia L1210 turned out to be 28.4. Moreover, the median lethal dose (LD50) at 720 h in data set [1] amounted to 500 mg/kg.

As for `CC(C)CN(C(=O)N(CCCl)N=O)[C@H]1[C@H](O)[C@H](OC2CCCCC2)O[C@@H]1CO` [Compound 163, 3-isobutyl-3-(cyclohexyl β-D-arabinofuranose-3-yl)-1-(2-chloroethyl)-1-nitrosourea], in the data set on Leukemia L1210, the ED (maximum ILS) is 160 mg/kg, the ED30 came out at 4.91 mg/kg, the “Survivors after 60 days” value was 3/6 and the “Max. ILS %” value is reported as greater than 365%. The “Therapeutic ratio TR” value in the data set on Leukemia L1210 is 32.6. The compound further displayed an LD50 at 720 h in data set [1] of 550 mg/kg.

As for `COCCCN(C(=O)N(CCCl)N=O)[C@@H]1[C@@H](O)[C@@H](OCC(C)C)O[C@@H]1CO` [Compound 165, 3-(3-methoxy-n-propyl)-3-(isobutyl α-D-xylofuranose-3-yl)-1-(2-chloroethyl)-1-nitrosourea], in the data set on Leukemia L1210, the ED (maximum ILS) stood at 160 mg/kg, the ED30 was 5.57 mg/kg, the “Survivors after 60 days” value is 3/6 and the “Max. ILS %” value is recorded as greater than 340%. In addition, the “Therapeutic ratio TR” value in the data set on Leukemia L1210 is listed as 28.7. This compound also gave an LD50 at 720 h in data set [1] of 480 mg/kg.

With `CC(C)CN(C(=O)N(CCCl)N=O)[C@H]1[C@@H](OC2CCCCC2)O[C@H](CO)[C@@H]1O` [Compound 166, 3-isobutyl-3-(cyclohexyl α-D-xylofuranose-2-yl)-1-(2-chloroethyl)-1-nitrosourea], in the data set with Leukemia L1210, the ED (maximum ILS) amounted to 150 mg/kg, the ED30 came out at 4.75 mg/kg, the “Survivors after 60 days” value is reported as 3/6 and the “Max. ILS %” value is recorded as greater than 345%. Moreover, the “Therapeutic ratio TR” value in the data set with Leukemia L1210 turned out to be 31.6. In data set [1], this compound registered an LD50 at 720 h of 450 mg/kg.

In the case of `COCCCO[C@@H]1O[C@H](CN(CCCOC)C(=O)N(CCCl)N=O)[C@@H](O)[C@H]1O` [Compound 168, 3-(3-methoxy-n-propyl)-3-(3-methoxy-n-propyl β-D-ribofuranose-5-yl)-1-(2-chloroethyl)-1-nitrosourea], in the data set on Leukemia L1210, the ED (maximum ILS) amounted to 160 mg/kg, the ED30 was 3.3 mg/kg, the “Survivors after 60 days” value is listed as 4/6 and the “Max. ILS %” value is greater than 425%. Also, the “Therapeutic ratio TR” value in the data set with Leukemia L1210 worked out at 48.5. In addition, the LD50 at 720 h in data set [1] is 500 mg/kg.

As for `CC(C)CN(C[C@H]1O[C@@H](OC2CCCCC2)[C@H](O)[C@@H]1O)C(=O)N(CCCl)N=O` [Compound 169, 3-isobutyl-3-(cyclohexyl β-D-ribofuranose-5-yl)-1-(2-chloroethyl)-1-nitrosourea], in the data set with Leukemia L1210, the ED (maximum ILS) was determined as 180 mg/kg, the ED30 was 3.9 mg/kg, the “Survivors after 60 days” value was 4/6 and the “Max. ILS %” value was greater than 420%. Also, the “Therapeutic ratio TR” value in the data set on Leukemia L1210 is 46.2. The same compound registered an LD50 at 720 h in data set [1] of 550 mg/kg.

As for `COCC(C)N(C[C@H]1O[C@H](OC2CCCC2)[C@H](O)[C@@H](O)[C@@H]1O)C(=O)N(CCCl)N=O` (stereo partly drawn) [Compound 172, 3-(1-methy-2-methoxyethyl)-3-(cyclopentyl α-D-glucopyranose-6-yl)-1-(2-chloroethyl)-1-nitrosourea], in the data set with Leukemia L1210, the ED (maximum ILS) was determined as 180 mg/kg, the ED30 worked out at 2.67 mg/kg, the “Survivors after 60 days” value is recorded as 6/6 and the “Max. ILS %” value is greater than 700%. For the same compound, the “Therapeutic ratio TR” value with Leukemia L1210 was 67.3. Besides, the LD50 at 720 h in data set [1] is 600 mg/kg.

As for `CC(C)(C)O[C@H]1O[C@H](CN(C(=O)N(CCCl)N=O)C2CCCCC2)[C@@H](O)[C@H](O)[C@H]1O` [Compound 173, 3-cyclohexyl-3-(tert-butyl α-D-glucopyranose-6-yl)-1-(2-chloroethyl)-1-nitrosourea], in the data set on Leukemia L1210, the ED (maximum ILS) was 160 mg/kg, the ED30 is 3.16 mg/kg, the “Survivors after 60 days” value is given as 5/6 and the “Max. ILS %” value is recorded as greater than 630%. Besides, the “Therapeutic ratio TR” value in the data set on Leukemia L1210 is on record as 50.6. The compound also gave an LD50 at 720 h in data set [1] of 510 mg/kg.

For the compound `CC(C)CO[C@@H]1O[C@H](CO)[C@@H](O)[C@H](O)[C@H]1N(C(=O)N(CCCl)N=O)C(C)(C)C` [Compound 176, 3-tert-butyl-3-(isobutyl β-D-glucopyranose-2-yl)-1-(2-chloroethyl)-1-nitrosourea], in the data set on Leukemia L1210, the ED (maximum ILS) amounted to 180 mg/kg, the ED30 was determined as 5.9 mg/kg, the “Survivors after 60 days” value is given as 6/6 and the “Max. ILS %” value is on record as greater than 700%. Besides, in the data set on Leukemia L1210, the “Therapeutic ratio TR” value worked out at 30.5. Further, the LD50 at 720 h in data set [1] came out at 620 mg/kg.

Turning to `C=C(C)CO[C@H]1O[C@H](CN(C(=O)N(CCCl)N=O)C(C)(C)C)[C@@H](O)[C@H](O)[C@H]1O` [Compound 177, 3-tert-butyl-3-(2-methyl-2-propenyl α-D-glucopyranose-6-yl)-1-(2-chloroethyl)-1-nitrosourea], in the data set with Leukemia L1210, the ED (maximum ILS) came out at 180 mg/kg, the ED30 turned out to be 2.75 mg/kg, the “Survivors after 60 days” value is on record as 6/6 and the “Max. ILS %” value is recorded as greater than 700%. Further, in the data set with Leukemia L1210, the “Therapeutic ratio TR” value came out at 65.4. Also, in data set [1], the LD50 at 720 h was 550 mg/kg.

As to `COc1ccc(CO[C@H]2O[C@H](CN(C(=O)N(CCCl)N=O)C(C)(C)C)[C@@H](O)[C@H](O)[C@H]2O)cc1` [Compound 182, 3-tert-butyl-3-(p-methoxybenzyl α-D-glucopyranose-6-yl)-1-(2-chloroethyl)-1-nitrosourea], in the data set with Leukemia L1210, the ED (maximum ILS) turned out to be 140 mg/kg, the ED30 came out at 3.49 mg/kg, the “Survivors after 60 days” value was 5/6 and the “Max. ILS %” value is given as greater than 620%. In the data set with Leukemia L1210, the “Therapeutic ratio TR” value was found to be 40.1. Besides, the LD50 at 720 h in data set [1] came to 420 mg/kg.

With `CC(C)CO[C@@H]1O[C@H](CN(CC(C)(C)C)C(=O)N(CCCl)N=O)[C@@H](O)[C@H](O)[C@H]1O` [Compound 184, 3-neopentyl-3-(isobutyl β-D-glucopyranose-6-yl)-1-(2-chloroethyl)-1-nitrosourea], in the data set with Leukemia L1210, the ED (maximum ILS) came out at 170 mg/kg, the ED30 was determined as 2.93 mg/kg, the “Survivors after 60 days” value is 6/6 and the “Max. ILS %” value is listed as greater than 700%. Moreover, the “Therapeutic ratio TR” value in the data set on Leukemia L1210 came out at 58.0. In data set [1], the LD50 at 720 h came to 540 mg/kg.

For `CCOCCO[C@H]1O[C@H](CN(CC(C)(C)C)C(=O)N(CCCl)N=O)[C@@H](O)[C@H](O)[C@H]1O` [Compound 187, 3-neopentyl-3-(2-ethoxyethyl α-D-glucopyranose-6-yl)-1-(2-choroethyl)-1-nitrosourea], in the data set with Leukemia L1210, the ED (maximum ILS) came to 160 mg/kg, the ED30 turned out to be 2.66 mg/kg, the “Survivors after 60 days” value is 6/6 and the “Max. ILS %” value was greater than 700%. In the data set on Leukemia L1210, the “Therapeutic ratio TR” value is on record as 60.2. The same compound had an LD50 at 720 h in data set [1] of 510 mg/kg.
